≈ marks a conversion by molar mass, not a printed value. Like-named read-outs stand apart in the source and are kept apart here.

One data set has as its system Panc-1. Briefly: Cancer cell proliferation assay, Panc-1. The note with it: Homo sapiens, PANC-1. The data set is classed as cell-based. Here is the method: (§1) In Vitro Determination of Effects of Synthesized Diterpenoids on Cancer Cell Proliferation. […] Then MTT solution was removed, and 150 μL of DMSO was added to each well. Absorbance of all wells was determined by measuring OD at 550 nm after a 10 min incubation on a 96-well GlowMaxate absorbance reader (Promega, Madison, Wis.). Each individual compound was tested in quadruplicate wells for each concentration.

A further data set deals with AsPC1. Briefly: Cancer cell proliferation assay, AsPC1. The note with it: Homo sapiens, ASPC1. The data set is classed as cell-based. Here is the method:
as §1

For the next data set, the system named is HMEC cells. In words: Toxicity in HMEC cells. The data set is classed as cell-based.
In data set [1] the test system is xenograft tumors (breast cancer MDA-MB-231). In words: MDA-MB-231 xenograft tumor growth in mice. In kind it is in vivo. The note with it: 5.0 mg/kg ip; triple-negative MDA-MB-231 xenograft; p<0.0001. The source says: (§2) FIG. 14. […] Values are mean±SE of three independent experiments.
(§3) In pilot in vivo studies, this compound was further evaluated for its anticancer activity in suppression of tumor growth in the triple-negative breast cancer MDA-MB-231 xenograft model.

Data set [2] can be described thus: Body weight and tolerability in xenograft mice. The note with it: 5.0 mg/kg ip.
Excerpt: as §2, §3

For a further data set, the system named is MCF-7. Briefly: MTT cancer cell proliferation assay, MCF-7. In kind it is cell-based, human. The note with it: Homo sapiens. A digest of the protocol:
(§4)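 Cells seeded at 1×10^4/well and exposed 48 h to 0.01-100 μM compound (0.01, 0.1, 1, 5, 10, 100 μM) or DMSO. MTT added for a further 4 h, formazan dissolved in DMSO and OD read at 550 nm; quadruplicate wells per concentration. MCF-7 is ER-positive; MDA-MB-231 ER-negative, triple-negative.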

Another data set concerns MDA-MB-231 cells. In words: Colony formation in MDA-MB-231 cells. The data set is classed as cell-based.
A further data set concerns MDA-MB-231. In words: MTT cancer cell proliferation assay, MDA-MB-231. In kind it is cell-based, human. The note with it: Homo sapiens. In outline:
as §4

Data set [3] has as its system MCF-7/ADR. Briefly: MTT growth inhibition, drug-resistant MCF-7/ADR. In kind it is cell-based. To be noted: Homo sapiens, NCI/ADR-RES, 24 h, Table 1d; drug-resistant breast cancer cells; mean ± SE of three experiments.
Data set [4] has as its system breast, pancreatic, and prostate cancer cell lines. Briefly: Anti-proliferation effects against cancer cell lines. To be noted: summary of Tables 1 and 2. In kind it is cell-based, human. As for the experimental part: (§5) In Vitro Determination of Effects of Synthesized Diterpenoids on Cancer Cell Proliferation. Breast cancer cell lines MCF-7, MDA-MB-231, […] and MCF/ADR were seeded in 96-well plates at a density of 1×10^4 cells/well and treated with DMSO and 0.01, 0.1, 1, 5, 10, and 100 μM of individual compound for 48 h, and then 20 μL of 3-(4,5-dimethylthiazol-2-yl)-2,5-diphenyltetrazolium bromide (MTT) (5 mg/mL in PBS) was added to each well and further incubated for another 4 h. Then MTT solution was removed, and 150 μL of DMSO was added to each well. Absorbance of all wells was determined by measuring OD at 550 nm after a 10 min incubation on a 96-well GlowMaxate absorbance reader (Promega, Madison, Wis.). Each individual compound was tested in quadruplicate wells for each concentration.

The test system of a further data set is DU145. In words: Cancer cell proliferation assay, DU145. In kind it is cell-based. To be noted: Homo sapiens, DU-145.
For another data set, the system named is leukemia. The note with it: 15 mg/kg; Zhou et al., Blood 2007; cited from earlier work.
The test system of data set [5] is acute myeloid leukemic cells. To be noted: Zhou et al., Blood 2007; read-out: IC50, induction of mitochondrial apoptosis; cited from earlier work.
The subject of a further data set is MDA-MB-468. Briefly: MTT cancer cell proliferation assay, MDA-MB-468. In kind it is cell-based, human. The note with it: Homo sapiens, MDA-MB-468, 48 h, Table 3; pyran-fused diterpenoids; MTT 48 h; mean ± SE of three experiments. Here is the method:
as §5
(§6) The growth inhibitory effects of the newly generated pyran-fused diterpenoids were evaluated in four breast cancer cell lines MCF-7 (ER-positive), MDAMB-231 (ER-negative and triple-negative), MDA-MB-468 (ER-negative and triple-negative) as well as MCF-7/ADR (adriamycin-resistant) using MTT assays as described in the Experimental Section. The capability of these new molecules to inhibit the growth of cancer cells was summarized in Table 3 and compared with that of adriamycin and 1 spontaneously.

Another data set can be described thus: Aqueous solubility. In kind it is physicochemical. The note with it: water; compound as such; read-out: Aqueous solubility.
For data set [6], the system named is MCF-7/ADR. Briefly: MTT growth inhibition, drug-resistant MCF-7/ADR. In kind it is cell-based, human. The note with it: Homo sapiens, NCI/ADR-RES, 48 h, Table 3; adriamycin-resistant; MTT 48 h; mean ± SE of three experiments. Here is the method: as §5, §6
The mark [7] stands for this setting: MCF7, Table 1c, dienone analogues, mean ± SE of three experiments, read-out: Antiproliferative effect MCF-7 (IC50).
[8] abbreviates: MCF7, Table 2a, A-ring modified analogues, read-out: IC50 (μM) MCF-7.
The mark [9] stands for this setting: MDA-MB-231, Table 1c, dienone analogues, mean ± SE of three experiments, read-out: Antiproliferative effect MDA-MB-231 (IC50).
Setting [10] is: MDA-MB-231, Table 2a, A-ring modified analogues, read-out: IC50 (μM) MDA-MB-231.

Take `C=C1C(=O)[C@@]23[C@@H]4OC(C)(C)OC25OC[C@]2(C=CC(=O)C(C)(C)[C@H]2[C@@H]5O)[C@@H]3CC[C@@H]14` [CYD-6-86, (3S,3aR,3a^1R,6aR,7S,7aS,11aR,11bS)-7-hydroxy-5,5,8,8-tetramethyl-15-methylene-3,3a,7,7a,8,11b-hexahydro-1H-6a,11a-(epoxymethano)-3,3a^1-ethanophenanthro[1,10-de][1,3]dioxine-9,14(2H)-dione]: the IC50 in the data set on Panc-1 (Table 2a, A-ring modified analogues, read-out: IC50 (μM) Panc-1) was determined as 6.49 µM; in the data set on AsPC1 (Table 2a, A-ring modified analogues, read-out: IC50 (μM) AsPC1), 0.81 µM; in the data set on MCF-7 (setting [7]), 0.98 ± 0.19 µM; in the data set with MCF-7 (setting [8]), 0.86 µM; in the data set on MDA-MB-231 (setting [9]), 5.6 ± 1.06 µM; in the data set with MDA-MB-231 (setting [10]) it was 4.39 µM. Also, in the data set on MCF-7/ADR [3], the IC50 was found to be 6.02 ± 1.28 µM. For the same compound, in the data set with HMEC cells, the “Toxicity in HMEC cells” value is reported as “lower toxicity”. Moreover, the “Inhibition of xenograft tumor growth compared to oridonin at the same dose” value in data set [1] is given as “much more efficacious in suppressing xenograft tumor growth”. Also, the “Loss of body weight” value in data set [2] is “no significant loss of body weight”. Further, in [2], the “Tolerability during the experiments” value was “well tolerated”. For the same compound, the “Antiproliferative and colony formation inhibitory effects in MDA-MB-231 cells” value in the data set on MDA-MB-231 cells is “potent antiproliferative and colony formation inhibitory effects”. Besides, the “IC50 values, anti-proliferation effects against cancer cell lines” value in data set [4] is “low micromolar to nanomolar”.

Take `C=C1C(=O)[C@]23[C@H](O)[C@H]1CC[C@H]2[C@@]12COC3(O)[C@@H](O)[C@@H]1C(C)(C)CC[C@@H]2O` [Oridonin]: the IC50 is 14.2 µM in the data set on DU145 (Table 1a, prostate cancer, read-out: IC50 (μM) DU145); 14.2 µM in the data set on DU145 (Table 2b, mean of at least three experiments, read-out: Effect on proliferation DU145 (IC50)); 2 µM in [5]; 13.4 µM in the data set on Panc-1 (Table 1a, pancreatic cancer, read-out: IC50 (μM) Panc-1); 15.6 µM in the data set with Panc-1 (Table 2b, mean of at least three experiments, read-out: Effect on proliferation Panc-1 (IC50)); 34.5 µM with AsPC1 (Table 1a, pancreatic cancer, read-out: IC50 (μM) AsPC1). Also, the IC50 turned out to be 19.3 µM in the data set with AsPC1 (Table 2b, mean of at least three experiments, read-out: Effect on proliferation AsPC1 (IC50)); 5.33 ± 1.36 µM in the data set with MDA-MB-468; 4.36 ± 1.41 µM in the data set on MCF-7 (MCF7, 48 h, Table 3, pyran-fused diterpenoids, MTT 48 h, mean ± SE of three experiments, read-out: IC50 (μM) MCF-7); 6.64 µM in the data set with MCF-7 (MCF7, Table 1a, breast cancer, read-out: IC50 (μM) MCF-7); 6.6 µM with MCF-7 (MCF7, Table 1b, triazole substituted analogues, mean of three experiments, read-out: IC50 (μM) MCF-7); 4.36 ± 1.41 µM with MCF-7 (setting [7]). For the same compound, the IC50 came to 6.64 µM in the data set with MCF-7 (setting [8]); 6.6 µM in the data set on MCF-7 (MCF7, Table 2b, mean of at least three experiments, read-out: Effect on proliferation MCF-7 (ER positive) (IC50)); 34.8 ± 2.54 µM in the data set on MCF-7/ADR [6]; 28 ± 1.4 µM in the data set with MDA-MB-231 (MDA-MB-231, 48 h, Table 3, pyran-fused diterpenoids, MTT 48 h, mean ± SE of three experiments, read-out: IC50 (μM) MDA-MB-231); 29.4 µM with MDA-MB-231 (MDA-MB-231, Table 1a, breast cancer, read-out: IC50 (μM) MDA-MB-231); 29.4 µM in the data set with MDA-MB-231 (MDA-MB-231, Table 1b, triazole substituted analogues, mean of three experiments, read-out: IC50 (μM) MDA-MB-231). The IC50 was 28 ± 1.4 µM with MDA-MB-231 (setting [9]); 29.4 µM in the data set on MDA-MB-231 (setting [10]); 29.4 µM with MDA-MB-231 (MDA-MB-231, Table 2b, mean of at least three experiments, read-out: Effect on proliferation MDA-MB-231 (ER negative) (IC50)); over 30 µM with MCF-7/ADR [3]. Moreover, the “Anti-leukemia activities in murine models” value in the data set on leukemia is on record as “substantial anti-leukemia activities with a low side-effect”. For the same compound, the solubility in “Aqueous solubility” is 1290 µg/mL (≈ 3.54 mM).

For orientation: solubility means how much of the substance goes into solution per volume.

The values are drawn from patent publication US9725460B2, “Oridonin analogs, compositions, and methods related thereto” (THE BOARD OF REGENTS OF THE UNIVERSITY OF TEXAS SYSTEM, priority 2013, dated 2017).
